Experimental data from patent US20050171424A1, “Methods for imaging the lymphatic system using dendrimer-based contrast agents” (The Gov. of the USA as rep. by the Secretary of the Dept. …, priority 2004, published 2005).

What was measured:
[1] = tested on: draining lymph nodes and lymphatic vessels; assay: 3D dynamic mammo-lymphangiograms after sequential injection of GPDM and PAMAM-G6 into the mammary gland; format: in vivo, athymic nu/nu mice; conditions: 0.15 μmol Gd into mammary gland; GPDM imaged at 12, 24, 36 min, then PAMAM-G6 injected 36 minutes following GPDM
Method: Mice were anesthetized with 1.15 mg sodium pentobarbital (Dainabot, Osaka, Japan), and then injected with 0.15-0.24 μmol Gd/5-8 μL of the PAMAM-G6 contrast agent into normal mammary glands or mammary tissue surrounding a tumor (peritumorally). Dynamic micro-MR images were obtained using a 1.5-Tesla superconductive magnet unit (Signa LX, General Electric Medical System, Milwaukee, Wis.) with a birdcage type coil of 3 cm diameter fixed by a custom made coil holder. [Single and double “breast coils” used for imaging breasts in humans are commercially available, for example, from GE Medical Systems (Milwaukee, Wis.) and are routinely available in outpatient MRI centers] The mice were wrapped with gauze to stabilize their body temperature and were placed at the center of the coils. Athymic nu/nu mice (n=4) were anesthetized and injected with 0.15 μmol Gd of GPDM into the mammary gland, and images were taken 12, 24, and 36 min after injection. Following these three images, these mice were subsequently injected with 0.15 μmol Gd of PAMAM-G6 contrast agent in the mammary gland, and images were taken at 12 and 24 min post-injection of the PAMAM-G6 contrast agent (at 48 and 60 min post-injection of GPDM).

deep lymphatic system = assay: Whole-body dynamic 3D-micro-MR lymphangiography of normal mice (Example 2); format: in vivo; conditions: for Number of Mice in Which the Thoracic Duct was Visualized/Number of Mice Examined: Normal Mice, 0.1 μmolGd intracutaneously into four middle phalanges; for Visualization of the deep lymph nodes: normal mice, 10 to 45 min after intracutaneous injection, FIGS. 7, 8; for Axillary lymph node-to-background (muscle) signal intensity ratio, comparison between agents: T1-weighted signal, P<0.01, FIG. 9A; for Axillary lymph node-to-background (muscle) signal intensity ratio, comparison between agents / Axillary lymph node-to-liver signal intensity ratio, comparison between agents: all time points examined; for Axillary lymph node-to-liver signal intensity ratio, comparison between agents: P<0.01, FIG. 9B
Method: (§1) The mice were anesthetized with 1.15 mg sodium pentobarbital (Dainabot, Osaka, Japan) i.p., and then injected intracutaneously with 0.1 μmolGd of PAMAM-G8, DAB-G5, PAMAM-G4, Gadomer-17, or GPDM into four middle phalanges in all four extremities. Dynamic micro-MR images were obtained using a 1.5-Tesla superconductive magnet unit (Signa LX, General Electric Medical System, Milwaukee, Wis.) with a round birdcage type coil of 3 cm diameter fixed by a custom-made coil holder. Four to eight female mice (7 weeks old, 18-21 g body weight) in each group were used and each contrast agent was prepared at least three separate times for these imaging studies. The mice were wrapped with gauze to stabilize their body temperature and were placed at the center of the coils.
(§2) A 3D-fast spoiled gradient echo [3D-fastSPGR (efgre3d package; Signa Horizon, GE); repetition time/echo time 28.5/7.9 msec; inversion time 65 msec; 31.2 kHz, flip angle 30°, four excitations; 40 slice-encoding steps; scan time 7 min 36 seconds] with chemical shift fat-suppression was used 10, 20, 30, and 45 min after injection of the contrast agents. The coronal images were reconstructed with 0.6-mm section thickness at every 0.3-mm. The FOV was 6×3 cm and the size of the matrix was 512×256. The intensities of the regions of interest (ROIs) (for example, a whole axillary lymph node, and the liver) were measured, and then the time-intensity curves analyzed. The data were expressed as the axillary lymph node-to-muscle and the axillary lymph node-to-liver ratios. The slice data were processed into 3D images using the MIP method with the same window and level (window 3500 and level 2300) (Advantage Windows, General Electric Medical System). Two board-certified radiologists separately read a set of stereo views of 3D-MRL for all studies, and estimated the visualization of the thoracic duct. After imaging, the mice were sacrificed by carbon dioxide inhalation.
Statistical analyses were performed using either Student's t-test or a one-way analysis of variance (ANOVA), with a pairwise comparison using the Bonferroni method for signal intensity curves (Statview; SAS Institute Inc., Cary, N.C.).

[2] = tested on: deep lymph nodes, thoracic duct and lymphatic vessels; assay: Whole-body 3D-micro-MR lymphangiography of normal mice, PAMAM-G8 versus GPDM (Example 3); format: in vivo; conditions: intracutaneous injection, 0.05 mmolGd/kg (FIG. 13)
Method: as §1, §2
In this example, the PAMAM-G8 contrast agent is compared to GPDM. PAMAM-G8 was prepared as described in Example 2, and GPDM was purchased (Schering AG, Berlin, Germany). Animal models, administration of the contrast agents, and 3D-micro-MRL were as described in Example 2.

[3] = tested on: lymph nodes and lymphatic vessels of IL-15 transgenic mice; assay: 3D-micro-MRL in IL-15 transgenic lymphoproliferative/neoplastic disease model; format: in vivo; conditions: 45 minutes after injection, FIGS. 11, 15A
Method: Eight- to 10-month old IL-15 transgenic mice (on a C57BL6 background) were used as a chronic lymphoproliferative/neoplastic disease model because they manifested selective expansion of NK, CD8^+NK-T, γδIELs, and CD8 T cells in the periphery. Most of the lymph nodes collected from an aged IL-15 transgenic mouse were enlarged in size. The lesion of proliferated monoclonal lymphocytes often involved the lung and the subcutaneous lymphatic tissue.
as §1
as §2, with “The FOV was 6×3 cm and the size of the matrix was 512×256.” left out, “The slice data were processed into 3D images using the MIP method with the same window and level (window 3500 and level 2300) (Advantage Windows, General Electric Medical System).” left out, “After imaging, the mice were sacrificed by carbon dioxide inhalation.” left out

[4] = Distribution and survival properties of the dendrimer conjugates; conditions: in vivo

Molecule | Visualization of draining lymph nodes and lymphatic vessels (FIG. 3) [1] | Image enhancement (deep lymphatic system; 45 minutes after injection, FIG. 8B) | Number of Mice in Which the Thoracic Duct was Visualized/Number of Mice Examined (deep lymphatic system; 10 min) | Number of Mice in Which the Thoracic Duct was Visualized/Number of Mice Examined (deep lymphatic system; 20 min) | Number of Mice in Which the Thoracic Duct was Visualized/Number of Mice Examined (deep lymphatic system; 30 min) | Number of Mice in Which the Thoracic Duct was Visualized/Number of Mice Examined (deep lymphatic system; 45 min) | Visualization of the deep lymph nodes (deep lymphatic system) | Visualization of deep lymph nodes throughout the body [2] | Axillary lymph node-to-background (muscle) signal intensity ratio, comparison between agents (deep lymphatic system) | Axillary lymph node-to-liver signal intensity ratio, comparison between agents (deep lymphatic system) | Lymph node findings on 3D-micro-MRL [3] | Distribution within the lymphatic system [4] | Survival in the blood circulation and excretion [4]
CNC[C@H](O)[C@@H](O)[C@H](O)[C@H](O)CO.CNC[C@H](O)[C@@H](O)[C@H](O)[C@H](O)CO.O=C([O-])CN(CCN(CC(=O)[O-])CC(=O)O)CCN(CC(=O)[O-])CC(=O)O.[Gd+3] [GPDM, gadopentetate dimeglumine, reference compound] | not well visualized | Virtually no image enhancement | 2/5 | 0/5 | 0/5 | 0/5 | did not allow most of the lymph nodes to be visualized even at early times | but not with GPDM |  |  |  |  | 
Gadomer-17 [reference compound] |  |  | 2/5 | 2/5 | 1/5 | 1/5 | allowed visualization of the deep lymph nodes, albeit not as clearly and brightly as the dendrimer-based agents |  | significantly higher than that acquired with GPDM | nearly equivalent, but were significantly higher than that measured with GPDM |  |  | 
DAB-Am-128-(Gd-1B4M)128 dendrimer conjugate [DAB-G5] |  |  | 3/5 | 2/5 | 0/5 | 0/5 |  |  | significantly higher than that obtained with either PAMAM-G8 or PAMAM-G4 | nearly equivalent, but were significantly higher than that measured with GPDM | considerable multiple lymph node swellings with central filling defects | tend to accumulate in the lymph nodes rather than the vessels | 
PAMAM-G4D-(Gd-1B4M)64 dendrimer conjugate |  |  | 4/5 | 4/5 | 3/5 | 2/5 |  |  | significantly higher than that measured with Gadomer-17 and GPDM | significantly higher than that acquired with PAMAM-G8, DAB G-5, or Gadomer-17 |  | tend to accumulate in the lymph nodes rather than the vessels | short survival in the blood circulation due to a rapid renal excretion without significant retention in other organs
